Test results taken from patent publication US8530512B2, “Broad spectrum gram-positive antimicrobials and anthelmintics with efficacy against drug-resistant strains and Mycobacterium species” (priority 2004, dated 2013).
Values after ≈ are worked out from the molar mass of the structure shown.

Key:
[1] = tested on: Staphylococcus aureus ATCC 29213; test: microbe, parasite or virus in culture; format: cell-based; conditions: Staphylococcus aureus, ATCC29213; per-compound listing, Example 6; read-out: MIC S. aureus
[2] = tested on: Staphylococcus aureus MRSA MC-1; test: microbe, parasite or virus in culture; format: cell-based; conditions: Staphylococcus aureus, MRSA, read-out: MIC MRSA
[3] = tested on: Enterococcus faecium VRE 1; test: organism not typed; format: cell-based; conditions: for MIC E. faecium VRE 1, G+: Table 3; for MIC: read-out: MIC VRE
[4] = tested on: Streptococcus pyogenes; test: microbe, parasite or virus in culture; format: cell-based; conditions: for MIC: Streptococcus pyogenes, per-compound listing, Example 6, read-out: MIC S. pyogenes; for MIC S. pyogenes, G+: Table 3
[5] = tested on: Bacillus cereus; test: microbe, parasite or virus in culture; format: cell-based; conditions: for MIC: Bacillus cereus, per-compound listing, Example 6, read-out: MIC B. cereus; for MIC B. cereus, G+ (anthrax surrogate): Table 3
[6] = tested on: M. smegmatis; test: MIC assay; format: cell-based; conditions: Mycolicibacterium smegmatis; per-compound listing, Example 6; read-out: MIC M. smegmatis
[7] = tested on: C. elegans; test: motility assay; format: in vivo; design: key to Movement score, 1/1600 / Movement score, 1/800 / Movement score, 1/400 / Movement score, 1/200 / Movement score, 1/100: normal (−); slow (+); very slow (++); not motile/paralyzed (+++); conditions: for Movement score, 1/100: dilution 1/100 of stock (10.24 μg/μL; SK-03-92 1.024 μg/μL); for Movement score, 1/100 / Movement score, 1/200 / Movement score, 1/400 / Movement score, 1/800 / Movement score, 1/1600: Ive 1 ng/μL in all wells; for Movement score, 1/200: dilution 1/200 of stock (10.24 μg/μL; SK-03-92 1.024 μg/μL); for Movement score, 1/400: dilution 1/400 of stock (10.24 μg/μL; SK-03-92 1.024 μg/μL); for Movement score, 1/800: dilution 1/800 of stock (10.24 μg/μL; SK-03-92 1.024 μg/μL); for Movement score, 1/1600: dilution 1/1600 of stock (10.24 μg/μL; SK-03-92 1.024 μg/μL), overnight 20° C.; for effect on worms at the lowest concentrations tested: at least triplicate
[8] = tested on: C. elegans L1 larvae; test: developmental assay; format: in vivo; design: key to Developmental score, 1/1600 / Developmental score, 1/800 / Developmental score, 1/400 / Developmental score, 1/200 / Developmental score, 1/100: dead (+++); distressed (++); slightly delayed (+); the same as M9-only untreated wells (−); conditions: for Developmental score, 1/100: dilution 1/100; for Developmental score, 1/100 / Developmental score, 1/200 / Developmental score, 1/400 / Developmental score, 1/800 / Developmental score, 1/1600: after four days, Ive 1 ng/μL in each well; for Developmental score, 1/200: dilution 1/200; for Developmental score, 1/400: dilution 1/400; for Developmental score, 1/800: dilution 1/800; for Developmental score, 1/1600: dilution 1/1600

Compound	MIC [1] [µg/mL]	MIC [2] [µg/mL]	MIC E. faecium VRE 1, G+ [3] [µg/mL]	MIC [3] [µg/mL]	MIC [4] [µg/mL]	MIC S. pyogenes, G+ [4] [µg/mL]	MIC [5] [µg/mL]	MIC B. cereus, G+ (anthrax surrogate) [5] [µg/mL]	MIC [6] [µg/mL]	Movement score, 1/100 [7]	Movement score, 1/200 [7]	Movement score, 1/400 [7]	Movement score, 1/800 [7]	Movement score, 1/1600 [7]	Developmental score, 1/100 [8]	Developmental score, 1/200 [8]	Developmental score, 1/400 [8]	Developmental score, 1/800 [8]	Developmental score, 1/1600 [8]	other results
COc1cc(O)cc(/C=C/Oc2ccccc2)c1 [CL-1, Phenyl-E-(3-hydroxy-5-methoxy)-styryl ether]	32 (≈ 132 µM)	64 (≈ 264 µM)	64 (≈ 264 µM)	64 (≈ 264 µM)	32 (≈ 132 µM)	32 (≈ 132 µM)	32 (≈ 132 µM)	16 (≈ 66 µM)	128 (≈ 528 µM)	+++	+++	−	−	−						
COc1cc(O)cc(O/C=C/c2ccccc2)c1 [CL-2, Phenyl-E-(3-hydroxy-5methoxy)-styryl ether]	32 (≈ 132 µM)	32 (≈ 132 µM)	32 (≈ 132 µM)	32 (≈ 132 µM)	16 (≈ 66 µM)	16 (≈ 66 µM)	64 (≈ 264 µM)	64 (≈ 264 µM)	128 (≈ 528 µM)	+++	+++	+++	−	−						
COc1cc(O)cc(/C=C/Sc2ccccc2)c1 [CL-4, Phenyl-E-(3-hydroxy-5methoxy)-styryl thioether]	16 (≈ 61.9 µM)	32 (≈ 124 µM)	32 (≈ 124 µM)	32 (≈ 124 µM)	8 (≈ 31 µM)	8 (≈ 31 µM)	16 (≈ 61.9 µM)	16 (≈ 61.9 µM)	128 (≈ 495 µM)	+++	+++	++	+	−	+++	+++	+++	−	−	
COc1cc(O)cc(/C=C/c2ccsc2)c1 [CL-5, (E)-3-[2-(3-Hydroxy-5-methoxy)-vinyl]thiophene]	16 (≈ 68.9 µM)	32 (≈ 138 µM)	32 (≈ 138 µM)	32 (≈ 138 µM)	4 (≈ 17.2 µM)	4 (≈ 17.2 µM)	32 (≈ 138 µM)	32 (≈ 138 µM)	128 (≈ 551 µM)	+++	+++	+++	+++	++	+++	+++	+++	+++	+	effect on worms at the lowest concentration tested (most active) ([7]; lowest concentration tested): severe distress; effect on worms at the lowest concentrations tested [7]: reduced motility, paralysis, or death; effect at the two highest dilutions [8]: death or delays in development
COc1cc(O)cc(/C=C/c2cccs2)c1 [CL-6, (E)-2-[2-(3-Hydroxy-5-methoxy)-vinyl]thiophene]	32 (≈ 138 µM)	32 (≈ 138 µM)	64 (≈ 276 µM)	64 (≈ 276 µM)	32 (≈ 138 µM)	32 (≈ 138 µM)	32 (≈ 138 µM)	32 (≈ 138 µM)	64 (≈ 276 µM)	+++	+++	+++	−	−						
COc1cc(O)cc(/C=C/Oc2ccccc2C)c1 [Compound A11, 2-Methylphenyl-E-(3-hydroxy-5-methoxy)-styryl ether]	16 (≈ 62.4 µM)	32 (≈ 125 µM)	32 (≈ 125 µM)	32 (≈ 125 µM)	32 (≈ 125 µM)	32 (≈ 125 µM)	32 (≈ 125 µM)	64 (≈ 250 µM)	> 128											
COc1cc(O)cc(/C=C/c2ccc3ccccc3c2)c1 [SK-03-28F2]	8 (≈ 29 µM)						16 (≈ 57.9 µM)		256 (≈ 926 µM)	+++	+++	++	++	−	+++	+++	−	−	−	effect on worms at the lowest concentrations tested [7]: reduced motility, paralysis, or death
Oc1cc(O)cc(/C=C/c2ccc3ccccc3c2)c1 [SK-03-28F3]	8 (≈ 30.5 µM)	256 (≈ 976 µM)					8 (≈ 30.5 µM)		> 512											
